Measurements as given in US6818663B2, “Diaminothiazoles” (Hoffmann-La Roches, priority 2002, dated 2004).

Assays:
Type in all cases: biochemical
[1] = biological target: human cyclin D1-CDK4 (Homo sapiens, UniProt P11802); assay: FlashPlate kinase assay, cyclin D1-CDK4, Rb substrate; settings: recombinant cyclin D1-CDK4, Rb phosphorylation, 1 μM ATP
Procedure: (§1) To determine inhibition of Cdk4, Cdk2 and Cdk1 activity, kinase assays were conducted using FlashPlate™ assays (NEN™-Life Science Products). FlashPlate assays were performed using recombinant human cyclin B-CDK1, human cyclin E-CDK2 or human cyclin D1-CDK4 complexes. GST-cyclinE (GST-cycE), CDK2, GST-cyclinB (GST-cycB), CDK1, GST-CDK4 and cyclin D1 (cycD1) cDNA clones in baculovirus vectors were provided by Dr. W. Harper at the Baylor College of Medicine, Houston, Tex. Proteins were co-expressed in High Five™ insect cells and the complex was purified on glutathione Sepharose resin (Pharmacia, Piscataway, N.J.) as previously described (Harper, J. W. et al. Cell 1993, 75, 805-816). A 6×-Histidine tagged truncated form of retinoblastoma (Rb) protein (amino acid 386-928) was used as the substrate for the cycD1-CDK4, cycB-CDK1 and the cycE-CDK2 assays (the expression plasmid was provided by Dr. Veronica Sullivan, Department of Molecular Virology, Roche Research Centre, Welwyn Garden City, United Kingdom). The Rb protein is a natural substrate for phosphorylation by CDK4, CDK2 and CDK1 (see Herwig and Strauss Eur. J. Biochem. Vol. 246 (1997) pp. 581-601 and the references cited therein).
(§2) The expression of the 62 Kd protein was under the control of an IPTG inducible promoter in an M15 E. coli strain. Cells were lysed by sonication and purification was carried out by binding lysates at pH 8.0 to a Ni-chelated agarose column pretreated with 1 mM imidazole. The resin was then washed several times with incrementally decreasing pH buffers to pH 6.0, and eluted with 500 mM imidazole. Eluted protein was dialysed against 20 mM HEPES pH 7.5, 30% glycerol, 200 mM NaCl, and 1 mM DTT. Purified Rb fusion protein stocks were quantitated for protein concentration, aliquoted, and stored at −70° C.
(§3) For all three kinase assays reported herein, 96-well FlashPlates were coated with Rb protein at 10 μg/ml, using 100 μl per well. Plates were incubated at 4° C. overnight or at room temperature for 3 hours on a shaker. To control for nonspecific phosphorylation, one row of wells was coated with 100 μl/well coating buffer (20 mM HEPES, 0.2 M NaCl). Plates were then washed twice with wash buffer (0.01% Tween 20 in phosphate-buffered saline). Compounds to be tested (“test compounds”) were added to the wells at 5×final concentration. Reactions were initiated by immediate addition of 40 μl reaction mix (25 mM HEPES, 20 mM MgCl2, 0.002% Tween 20, 2 mM DTT, 1 μM ATP, 4 nM ^33P-ATP) and a sufficient amount of enzyme to give counts that were at least 10-fold above background. Plates were incubated at room temperature on a shaker for 30 minutes. Plates were washed four times with the wash buffer, sealed, and counted on the TopCount scintillation counter (Packard Instrument Co., Downers Grove, Ill.]. The percent inhibition of Rb phosphorylation, which is a measure of the inhibition of CDK activity, was determined according to the following formula: [formula]
(§4) where “test compound” refers to the average counts per minute of the test duplicates, “nonspecific” refers to the average counts per minute when no CyclinD/Cdk4, etc., was added, and “total” refers to the average counts per minute when no compound was added. The IC50 value is the concentration of test compound that reduces by 50% the protein-kinase induced incorporation of the radiolabel under the test conditions described.

[2] = biological target: human cyclin B-CDK1 (Homo sapiens, UniProt P06493); assay: FlashPlate kinase assay, cyclin B-CDK1, Rb substrate; settings: recombinant cyclin B-CDK1, Rb phosphorylation, 1 μM ATP
Chain of human cyclin B-CDK1 (P06493 whole entry): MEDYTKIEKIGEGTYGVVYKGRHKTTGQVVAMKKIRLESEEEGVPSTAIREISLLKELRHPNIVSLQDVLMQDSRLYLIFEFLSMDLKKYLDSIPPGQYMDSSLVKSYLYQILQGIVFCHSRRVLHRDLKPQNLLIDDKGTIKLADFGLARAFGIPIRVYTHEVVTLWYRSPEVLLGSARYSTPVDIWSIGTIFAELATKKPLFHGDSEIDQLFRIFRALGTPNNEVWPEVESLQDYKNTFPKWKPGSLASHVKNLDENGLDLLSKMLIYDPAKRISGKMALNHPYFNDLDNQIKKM
Chain of human cyclin B-CDK1 (P14635 whole entry partner): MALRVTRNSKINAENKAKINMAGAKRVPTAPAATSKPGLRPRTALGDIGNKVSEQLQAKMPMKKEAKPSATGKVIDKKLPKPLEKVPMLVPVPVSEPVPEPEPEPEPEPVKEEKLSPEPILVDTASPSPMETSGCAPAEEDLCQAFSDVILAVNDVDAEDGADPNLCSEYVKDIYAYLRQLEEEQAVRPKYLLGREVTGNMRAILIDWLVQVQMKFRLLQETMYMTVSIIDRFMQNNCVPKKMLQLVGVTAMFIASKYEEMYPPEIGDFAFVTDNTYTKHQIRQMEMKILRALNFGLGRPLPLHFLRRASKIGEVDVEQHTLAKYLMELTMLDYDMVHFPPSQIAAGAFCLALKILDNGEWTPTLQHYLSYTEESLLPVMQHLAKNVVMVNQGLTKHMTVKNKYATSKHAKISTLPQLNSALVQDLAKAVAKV
Procedure: as §1, §2, §3, §4

[3] = biological target: human cyclin E-CDK2 (Homo sapiens, UniProt P24941); assay: FlashPlate kinase assay, cyclin E-CDK2, Rb substrate; settings: recombinant cyclin E-CDK2, Rb phosphorylation, 1 μM ATP
Procedure: as §1, §2, §3, §4

Chain of human cyclin D1-CDK4 (P11802 whole entry): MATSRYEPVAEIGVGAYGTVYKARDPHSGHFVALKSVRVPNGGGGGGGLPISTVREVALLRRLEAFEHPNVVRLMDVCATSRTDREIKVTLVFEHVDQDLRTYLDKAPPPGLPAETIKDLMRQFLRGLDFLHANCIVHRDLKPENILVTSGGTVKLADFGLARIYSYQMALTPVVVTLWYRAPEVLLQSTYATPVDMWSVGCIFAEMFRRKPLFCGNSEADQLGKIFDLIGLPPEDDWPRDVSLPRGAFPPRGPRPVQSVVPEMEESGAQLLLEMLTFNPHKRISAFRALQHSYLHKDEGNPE
Chain of human cyclin D1-CDK4 (P24385 whole entry partner): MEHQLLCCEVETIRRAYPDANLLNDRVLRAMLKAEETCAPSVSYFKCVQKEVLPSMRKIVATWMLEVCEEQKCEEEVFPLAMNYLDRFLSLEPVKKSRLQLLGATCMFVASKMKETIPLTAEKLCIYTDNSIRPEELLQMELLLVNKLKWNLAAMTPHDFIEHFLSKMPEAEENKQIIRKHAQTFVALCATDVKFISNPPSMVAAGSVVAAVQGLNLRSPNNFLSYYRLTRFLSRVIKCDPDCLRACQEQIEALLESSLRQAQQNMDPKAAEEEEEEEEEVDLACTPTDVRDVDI

| Structure (SMILES) | IC50 [1] [nM] | IC50 [2] [nM] | IC50 [3] [nM] |
| --- | --- | --- | --- |
| Nc1nc(Nc2ccc(OC[C@@H]3CCCN3)cc2)sc1C(=O)c1cccc(F)c1 [Example 3, [4-Amino-2-[4-(pyrrolidin-2-ylmethoxy)-phenylamino]-thiazol-5-yl]-(3-fluoro-phenyl)-methanone] | 38 | 440 | 1170 |
| CN(C)C(C)(C)COc1ccc(Nc2nc(N)c(C(=O)c3cccc(F)c3)s2)cc1 [Example 39, [4-Amino-2-[4-(2-dimethylamino-2-methyl-propoxy)-phenylamino]-thiazol-5-yl]-(3-fluoro-phenyl)-methanone] | 92 | 613 | 850 |
| Nc1nc(Nc2ccc(OC3CCCNC3)cc2)sc1C(=O)c1cccc(F)c1 (stereo not drawn) [Example 46, [4-Amino-2-[4-(piperidin-3-yloxy)-phenylamino]-thiazol-5-yl]-(3-fluoro-phenyl)-methanone] | 65 | 416 | 1140 |
| Nc1nc(Nc2ccc(OCCN3CCOCC3)cc2)sc1C(=O)c1cccc(F)c1 [Example 47, [4-Amino-2-[4-(2-morpholin-4-yl-ethoxy)-phenylamino]-thiazol-5-yl]-(3-fluoro-phenyl)-methanone] | 73 | 196 | 1080 |
| COc1ccc(C(=O)c2sc(Nc3ccc(OCCN4CCCC4)cc3)nc2N)cc1[N+](=O)[O-] [Example 48, [4-Amino-2-[4-(2-pyrrolidin-1-yl-ethoxy)-phenylamino]-thiazol-5-yl]-(4-methoxy-3-nitro-phenyl)-methanone] | 85 | 1550 | 3160 |
| COc1ccc(C(=O)c2sc(Nc3ccc(OCCN(C)C)cc3)nc2N)cc1[N+](=O)[O-] [Example 49, [4-Amino-2-[4-(2-dimethylamino-ethoxy)-phenylamino]-thiazol-5-yl]-(4-methoxy-3-nitro-phenyl)-methanone] | 88 | 2390 | 4300 |
| Nc1nc(Nc2ccc(OCCN3CCOCC3)cc2)sc1C(=O)c1ccc2c(c1)OCCO2 [Example 55, [4-Amino-2-[4-(2-morpholin-4-yl-ethoxy)-phenylamino]-thiazol-5-yl]-(2,3-dihydro-benzo[1,4]dioxin-6-yl)-methanone] | 85 | 610 | 3200 |
| Nc1nc(Nc2ccc(OCCN3CCOCC3)cc2)sc1C(=O)c1ccc2c(c1)OCO2 [Example 56, [4-Amino-2-[4-(2-morpholin-4-yl-ethoxy)-phenylamino]-thiazol-5-yl]-benzo[1,3]dioxol-5-yl-methanone] | 29 | 155 | 3020 |
| CN(C)CCOc1ccc(Nc2nc(N)c(C(=O)c3ccc4c(c3)OCO4)s2)cc1 [Example 59, [4-Amino-2-[4-(2-dimethylamino-ethoxy)-phenylamino]-thiazol-5-yl]-benzo[1,3]dioxol-5-yl-methanone] | 63 | 434 | 5600 |
| CN(C)CCOc1ccc(Nc2nc(N)c(C(=O)c3cccc(C#N)c3)s2)cc1 [Example 60, 3-[4-Amino-2-[4-(2-dimethylamino-ethoxy)-phenylamino]-thiazole-5-carbonyl]-benzonitrile] | 79 | 847 | 1700 |
| Cc1ccc(C(=O)c2sc(Nc3ccc(OCCN(C)C)cc3)nc2N)cc1F [Example 73, [4-Amino-2-[4-(2-dimethylamino-ethoxy)-phenylamino]-thiazol-5-yl]-(3-fluoro-4-methyl-phenyl)-methanone] | 101 | 1170 | 5990 |
| Cc1ccc(C(=O)c2sc(Nc3ccc(OC[C@@H](C)N(C)C)cc3)nc2N)cc1F [Example 74, (R)-[4-Amino-2-[4-(2-dimethylamino-propoxy)-phenylamino]-thiazol-5-yl]-(3-fluoro-4-methyl-phenyl)-methanone] | 92 | 869 | 5130 |
| Cc1ccc(C(=O)c2sc(Nc3ccc(OCC(C)(C)N(C)C)cc3)nc2N)cc1F [Example 75, [4-Amino-2-[4-(2-dimethylamino-2-methyl-propoxy)-phenylamino]-thiazol-5-yl]-(3-fluoro-4-methyl-phenyl)-methanone] | 97 | 578 | 4240 |
| CCN1CCCC(Oc2ccc(Nc3nc(N)c(C(=O)c4ccc(O)c(F)c4)s3)cc2)C1 (stereo not drawn) [Example 82, [4-Amino-2-[4-(1-ethyl-piperidin-3-yloxy)-phenylamino]-thiazol-5-yl]-(3-fluoro-4-hydroxy-phenyl)-methanone] | 71 | 1020 | 1500 |
| CCN1CCC(Oc2ccc(Nc3nc(N)c(C(=O)c4ccc(C)c(F)c4)s3)cc2)C1 (stereo not drawn) [Example 86, [4-Amino-2-[4-(1-ethyl-pyrrolidin-3-yloxy)-phenylamino]-thiazol-5-yl]-(3-fluoro-4-methyl-phenyl)-methanone] | 97 | 977 | 1640 |
| CCN1CCCC(Oc2ccc(Nc3nc(N)c(C(=O)c4ccc(C)c(F)c4)s3)cc2)C1 (stereo not drawn) [Example 87, [4-Amino-2-[4-(1-ethyl-piperidin-3-yloxy)-phenylamino]-thiazol-5-yl]-(3-fluoro-4-methyl-phenyl)-methanone] | 74 | 451 | 957 |
| CCCc1cc(C(=O)c2sc(Nc3ccc(OC4CCNC4)cc3)nc2N)ccc1O (stereo not drawn) [Example 90, [4-Amino-2-[4-(pyrrolidin-3-yloxy)-phenylamino]-thiazol-5-yl]-(4-hydroxy-3-propyl-phenyl)-methanone; Compound With Acetic Acid] | 43 | 228 | 130 |
| Cc1cccc(C(=O)c2sc(Nc3ccc(OC4CCNC4)cc3)nc2N)c1 (stereo not drawn) [Example 91, [4-Amino-2-[4-(pyrrolidin-3-yloxy)-phenylamino]-thiazol-5-yl]-m-tolyl-methanone; Compound With Acetic Acid] | 67 | 471 | 817 |
| Cc1ccc(C(=O)c2sc(Nc3ccc(OC4CCNC4)cc3)nc2N)cc1F (stereo not drawn) [Example 94, [4-Amino-2-[4-(pyrrolidin-3-yloxy)-phenylamino]-thiazol-5-yl]-(3-fluoro-4-methyl-phenyl)-methanone; Compound With Acetic Acid] | 86 | 682 | 2040 |
| COc1ccc(C(=O)c2sc(Nc3ccc(OC4CCCNC4)cc3)nc2N)cc1F (stereo not drawn) [Example 97, [4-Amino-2-[4-(piperidin-3-yloxy)-phenylamino]-thiazol-5-yl]-(3-fluoro-4-methoxy-phenyl)-methanone] | 96 | 1720 | 3740 |
| CCc1cccc(C(=O)c2sc(Nc3ccc(OC4CCCNC4)cc3)nc2N)c1 (stereo not drawn) [Example 98, [4-Amino-2-[4-(piperidin-3-yloxy)-phenylamino]-thiazol-5-yl]-(3-ethyl-phenyl)-methanone] | 34 | 523 | 1230 |
| CCN(CC)CCOc1ccc(Nc2nc(N)c(C(=O)c3ccc4c(c3)C(C)CO4)s2)cc1 (stereo not drawn) [Example 139, [4-Amino-2-[4-(2-diethylamino-ethoxy)-phenylamino]-thiazol-5-yl]-(3-methyl-2,3-dihydro-benzofuran-5-yl)-methanone] | 70 | – | – |
| CCN(CC)CCOc1ccc(Nc2nc(N)c(C(=O)c3ccc4c(c3)CCO4)s2)cc1 [Example 142, [4-Amino-2-[4-(2-diethylamino-ethoxy)-phenylamino]-thiazol-5-yl]-(2,3-dihydro-benzofuran-5-yl)-methanone] | 100 | 6430 | – |
